Experimental data taken from publication PMC3220703, “Effects of DPP-4 Inhibitors on the Heart in a Rat Model of Uremic Cardiomyopathy” (PLoS ONE, 2011).

Assays:
5/6N rats = test: Markers of kidney function before and after drug administration in 5/6N rats; type: in vivo, rat; conditions: for effect on concentration of osteopontin: 4 days of treatment vs pre-treatment; for Osteopontin: mean±SEM
Protocol: Creatinine concentration was measured by the Jaffe colorimetric method. Creatinine clearance was estimated as described previously.
For each parameter, the log10-transformed values were analyzed separately using an ANOVA for repeated measurements with factors for experimental group and time as fixed effects. […] These statistical analyses were carried out with the software product SAS (SAS Institute, Cary, NC USA), version 9.2.

[1] = Pharmacokinetics: plasma AUC(0-∞) in sham-operated and 5/6N rats (HPLC-MS/MS); type: in vivo, rat; conditions: day 4, mean±SEM; for AUC(0-inf): rat, plasma, po
Protocol: Sham-operated rats were divided into four control groups (N = 5–6 rats per group) in the same manner.
Chromatography for all assays was achieved on a Phenomenex Luna Phenyl-Hexyl 100A, 3 µm, 50×2 mm analytical HPLC column with gradient elution. The analytes were detected and quantified by HPLC-MS/MS using electrospray ionization in the positive ion mode.
Pharmacokinetic analysis was performed using non-compartmental methods with ToxKin V 3.5 (LogicaCMG ITS AG, Switzerland). The linear trapezoidal rule was used for AUC calculation. The terminal half-life (t(1/2)) was calculated as t(1/2) = ln2/λ(z) with the terminal elimination rate constant λ(z) as slope of the logarithmic-linear regression line lnC(t) = lnC(0 h) – λ(z) × t of two or three data points in the terminal phase. Extrapolated AUC(rest, tz-∞) was calculated according to Aronson et al, using the calculated concentration and time (t(z)) of the last measurable data point.

[2] = cited from earlier work; for main elimination route: in words
active GLP-1 = test: Plasma active GLP-1 levels after linagliptin; type: in vivo, rat
Source text: Figure 5 Active GLP-1 levels in uremic vs sham animals. […] Following the last dose, plasma was taken after the time points indicated and active GLP-1 was detected. Values are given as mean ± SEM. N = 5 sham-operated, and 8-12 rats for 5/6N.
Active (uncleaved, 7–36 amide or 7–37) GLP-1 was detected using the commercially available Multi-Array Assay System (K150JWC) from Meso Scale Discovery following the instructions of the supplier.

uremic rat heart = test: Quantitative real-time PCR of BNP and fibrosis markers in uremic rat heart; type: in vivo; conditions: 7 µmol/kg, 4 days; 5/6N rats; vs untreated 5/6N; in words
Protocol: Total RNA was extracted from 50 mg snap-frozen tissue by homogenization in peqGold Trifast reagent (Peqlab). Residual genomic DNA was removed with Turbo DNAse (Applied Biosystems). The RNA concentration and purity were assayed by spectrophotometry. First-strand cDNA synthesis was performed with random hexamer primer and 1 µg RNA using High Capacity cDNA Reverse Transcription Kit (Applied Biosystems) according to the manufacturer's instruction. (For further detail see Vinon-Zellweger et al.)
Sequences from the Ensemble database and the online available Primer3 software were used to create specific, intron-spanning primers for the target genes. […] Synthesized primers were obtained from Sigma-Aldrich®.
A total of 10 ng cDNA in 5 µl was normally used as template for amplification. An additional 0.5 µl of each primer (5 pmol) and 12.5 µl of Power SYBR Green PCR Master Mix (Applied Biosystems) were added and diluted with water to a volume of 25 µl. The PCR was performed on an Mx3000P thermal cycler (Stratagene). Reaction conditions were 95°C for 10 min, 40 cycles at 95°C for 15 sec, and 60°C for 60 sec, followed by an examination of the melting curve. All samples were analyzed in triplicate. The amplification efficiency of every reaction was checked with the linear regression method. Expression of the gene of interest was divided by the housekeeping gene, glyceraldehyde-3-phosphate dehydrogenase, and expressed as fold-change compared with the corresponding sham-operated rats group.

[3] = after (4 days + 72 h) administration, 7.0 µmol/kg
[4] = vs pre-treatment values, in words
[5] = 7 umol/kg, 5/6N rats, 7 µmol/kg oral once daily
[6] = 7 umol/kg, sham-operated rats, 7 µmol/kg oral once daily
[7] = before drug administration, 7.0 µmol/kg group

Cn1c(=O)cc(N2CCC[C@@H](N)C2)n(Cc2ccccc2C#N)c1=O [Alogliptin, alogliptin]
effect on concentration of osteopontin (5/6N rats; 7.0 µmol/kg, in words): significantly reduced
Osteopontin (5/6N rats; [3]): 39.1 ± 8.8 ng/mL
change of cystatin C following 4 days of treatment (5/6N rats; [4]): significantly increased
AUC(0-inf) [1, 5]: 2.44 ± 0.167 µM·h
AUC(0-inf) [1, 6]: 1.77 ± 0.226 µM·h

CC#CCn1c(N2CCC[C@@H](N)C2)nc2c1c(=O)n(Cc1nc(C)c3ccccc3n1)c(=O)n2C [Linagliptin, linagliptin]
eliminated via the urine ([2]; oral): 1–5%
elimination via the bile, share of the orally administered dose ([2]; oral): approximately 85%
effect on concentration of osteopontin (5/6N rats; 0.5 µmol/kg, p<0.001, in words): significantly reduced
effect on concentration of osteopontin (5/6N rats; 7.0 µmol/kg, in words): did not reach statistical significance
Osteopontin (5/6N rats; after (4 days + 72 h) administration, 0.5 µmol/kg): 48.1 ± 3.8 ng/mL
Osteopontin (5/6N rats; [3]): 49.4 ± 10.7 ng/mL
Osteopontin (5/6N rats; before drug administration, 0.5 µmol/kg group): 70.9 ± 4.7 ng/mL
Osteopontin (5/6N rats; [7]): 54.2 ± 10.0 ng/mL
change of cystatin C following 4 days of treatment (5/6N rats; [4]): trend toward decreasing
GLP-1 AUC (active GLP-1; 7 μmol/kg, 5/6N): 201 ng·h/L
GLP-1 AUC (active GLP-1; 7 μmol/kg, sham): 108 ng·h/L
GLP-1 AUC (active GLP-1; 5/6N rats, linagliptin 7 µmol/kg daily for 4 days): 201.0 ng·h/L
increase in GLP-1 in 5/6N rats compared with sham-treated rats (active GLP-1; linagliptin 7 µmol/kg, p = 0.01): 2 fold
GLP-1 AUC (active GLP-1; sham rats, linagliptin 7 µmol/kg daily for 4 days): 108.6 ng·h/L
AUC(0-∞) ([1]; 5/6N rats, 7 µmol/kg oral once daily): 0.7482 ± 0.07452 µM·h
AUC(0-inf) ([1]; 0.5 umol/kg, 5/6N rats, 0.5 µmol/kg oral once daily): 0.258 ± 0.0214 µM·h
AUC(0-inf) ([1]; 0.5 umol/kg, sham-operated rats, 0.5 µmol/kg oral once daily): 0.267 ± 0.0289 µM·h
AUC(0-inf) [1, 5]: 1.25 ± 0.373 µM·h
AUC(0-inf) [1, 6]: 0.748 ± 0.0745 µM·h
AUC(0-∞) ([1]; sham-operated rats, 7 µmol/kg oral once daily): 1.252 ± 0.3788 µM·h
mRNA expression of BNP in uremic rat heart (uremic rat heart): significantly reduced
mRNA expression of Col1α1 in uremic rat heart (uremic rat heart): significantly inhibited
mRNA expression of Col3α1 in uremic rat heart (uremic rat heart): significantly inhibited
mRNA expression of TGF-β1 in uremic rat heart (uremic rat heart): significantly inhibited
mRNA expression of TIMP-1 in uremic rat heart (uremic rat heart): significantly inhibited

N[C@@H](CC(=O)N1CCn2c(nnc2C(F)(F)F)C1)Cc1cc(F)c(F)cc1F [Sitagliptin, sitagliptin]
main elimination route [2]: via the kidney
effect on concentration of osteopontin (5/6N rats; 7.0 µmol/kg, in words): significantly reduced
Osteopontin (5/6N rats; [3]): 33.4 ± 2.4 ng/mL
Osteopontin (5/6N rats; [7]): 48.5 ± 4.4 ng/mL
change of cystatin C following 4 days of treatment (5/6N rats; [4]): unchanged
change of β2-microglobulin concentration following 4 days of treatment (5/6N rats; [4]): increasing the concentration of β2-microglobulin
AUC(0-inf) [1, 5]: 6.24 ± 0.423 µM·h
AUC(0-inf) [1, 6]: 3.69 ± 0.103 µM·h

N#C[C@@H]1CCCN1C(=O)CNC12CC3CC(CC(O)(C3)C1)C2 [vildagliptin]
main elimination route [2]: via the kidney
